In US9351983B2, “Use of glycerophosphoinositols for the treatment of septic shock” (CONSIGLIO NAZIONALE DELLE RICERCHE, priority 2012, dated 2016):

Assays:
Type in all cases: cell-based, human
[1] = system: LPS-induced degradation of I-κBα; assay: Western blotting of I-κBα in LPS-stimulated monocytes; details: 300 μM, 0.1 μg/ml LPS for 1 h
Description: Monocytes were incubated at 37° C. for 20 min without or with 300 μM GroPIns or GroPIns4P, and for a further 1 h in the absence and presence of 0.1 μg/ml LPS. After stimulation, the cells were lysed and expression levels of I-κBα were analysed. Proteins were resolved using 10% SDS-PAGE and were probed by Western blotting, using a polyclonal anti-I-κBα antibody. The data are representative of four experiments performed with monocytes isolated from peripheral blood of different donors.
(§1) Protein extracts were analysed by Western blotting by the following procedures. The nitrocellulose filters containing the proteins of interest were incubated in the blocking solution for Western blotting plus 3% bovine serum albumin (BSA) or 5% milk powder (Fluka, Switzerland) for 1 h at room temperature, and then with the primary antibody diluted to its working concentration (see Table 2) in the blocking solution for Western blotting (plus BSA or milk powder). After a 2-4 h incubation at room temperature, or an overnight (O/N) incubation at 4° C., the antibody was removed and the strips were washed twice in Tween®/Tris-buffered salt solution (TTBS), for 15 min each. […] After washing the strips were incubated with the enhanced luminescence (ECL) reagents (Amersham Pharmacia Biotech, NJ, USA), according to the manufacturer instructions, and protein signals were detect by autoradiography using Kodak film.

[2] = system: LPS-stimulated nuclear translocation of NF-κB; assay: Electromobility shift assay of nuclear NF-κB in LPS-stimulated monocytes; details: 50 μM, 0.1 μg/ml LPS for 1 h
Description: FIG. 7—Glycerophosphoinositols inhibit LPS-stimulated nuclear translocation of NF-κB. Human monocytes purified from the peripheral blood of healthy donors were incubated at 37° C. for 20 min without (−) or with (+) two different concentrations (300 μM and 50 μM) of GroPIns or GroPIns4P, and then for further 1 h in the absence (−) and presence (+) of 0.1 μg/ml LPS from E. coli. At the end of the incubation, the cells were lysed and the nuclear extracts were incubated with radiolabelled oligonucleotide probes that contained the NF-κB binding site. Protein-DNA complexes were separated using 6% non-denaturating acrylamide gels and visualised by autoradiography. The results shown are representative of 4 different experiments performed with cells from different donors.
Cells were harvested by centrifugation at 300×g for 5 min and lysed in ice-cold cell lysis buffer using an Ultraturrax homogeniser (Janke & Kunke, Germany, 4 strokes of 20 s each, at medium speed). The cell nuclei were pelleted by centrifugation (800×g, 5 min, at 4° C.) and recovered. […] After centrifugation (4000×g, for 10 min, at 4° C.), the supernatant was recovered and the protein concentrations in the nuclear extracts were determined using a commercially available protein assay kit (Bio-Rad Laboratories, UK). […]

ERK1/2 = assay: Western blotting of phosphorylated ERK1/2 in LPS-stimulated monocytes; details: 300 μM, 0.1 μg/ml LPS for 1 h
Description: Monocytes from healthy donors were incubated at 37° C. for 20 min without or with 300 μM GroPIns or GroPIns4P, and for an additional 1 h in the absence and presence of 0.1 μg/ml LPS from E. coli. Resentative Western blots are shown, as resolved using 10% SDS-PAGE, showing phosphorylated (p-) and total levels of p38 and ERK1/2. All of the blots were representative of at least three independent experiments.
as §1

SMILES | effect on LPS-induced degradation of I-κBα [1] | reduction of NF-κB nuclear translocation [2] | phosphorylation level of ERK1/2 (ERK1/2)
O=P(O)(O)OC1[C@@H](O)[C@H](O)C(OP(=O)(O)OCC(O)CO)[C@@H](O)[C@H]1O (stereo partly drawn) [GroPIns4P, glycerophosphoinositol 4-phosphate] | did not affect this LPS activity | not at 50 μM | did not affect the phosphorylation levels
O=P(O)(OCC(O)CO)OC1C(O)C(O)C(O)C(O)C1O (stereo not drawn) [GroPIns, glycerophosphoinositol] | did not affect this LPS activity | not at 50 μM | did not affect the phosphorylation levels
